Assay results published in ChEMBL document CHEMBL1201862, “PubChem BioAssay data set” (2004).
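Grown in 96-well plates, cells were treated for 48 hours with each compound at five concentrations. Insufficient inhibition: endpoint recorded as highest concentration tested. At the GI50, growth is halved.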 Active and inactive are the calls of the source. No stated cut-off is given here; in the data, active = GI50 up to about 1.1 µM and inactive = higher.

Key:
Assay in all cases: NCI tumour cell line growth inhibition, 48 h
COLO 205 = system: COLO 205
SK-MEL-2 = system: SK-MEL-2
SK-MEL-28 = system: SK-MEL-28
ACHN = system: ACHN
HCT-15 = system: HCT-15
RPMI-8226 = system: RPMI-8226
EKVX = system: EKVX
HCT-116 = system: HCT-116
NCI-H23 = system: NCI-H23
SK-MEL-5 = system: SK-MEL-5
SW-620 = system: SW-620
MOLT-4 = system: MOLT-4
UACC-62 = system: UACC-62
SF-539 = system: SF-539
SN12C = system: SN12C
SF-268 = system: SF-268

| SMILES | GI50 (COLO 205) | GI50 (SK-MEL-2) | GI50 (SK-MEL-28) | GI50 (ACHN) | GI50 (HCT-15) [µM] | GI50 (RPMI-8226) | GI50 (EKVX) | GI50 (HCT-116) | GI50 (NCI-H23) | GI50 (SK-MEL-5) | GI50 (SW-620) | GI50 (MOLT-4) | GI50 (UACC-62) | GI50 (SF-539) | GI50 (SN12C) | GI50 (SF-268) |
| --- | --- | --- | --- | --- | --- | --- | --- | --- | --- | --- | --- | --- | --- | --- | --- | --- |
| O=C(/C=C/c1ccc(Cl)cc1)c1ccncc1 | > 100 µM (inactive) | > 100 µM (inactive) | 52.6 µM (inactive) | 35.9 µM (inactive) | 44.5 | 89.3 µM (inactive) | 64.4 µM (inactive) | 62.2 µM (inactive) | > 100 µM (inactive) | 53.2 µM (inactive) | 78 µM (inactive) | 27 µM (inactive) | 76 µM (inactive) | 25.9 µM (inactive) | 51.4 µM (inactive) | 85.9 µM (inactive) |
| NC(=O)c1csc(C2C=CC(CO)O2)n1 (stereo unspecified) | > 100 µM (inactive) | > 100 µM (inactive) | > 100 µM (inactive) | > 100 µM (inactive) | > 100 | > 100 µM (inactive) | > 100 µM (inactive) | > 100 µM (inactive) | > 100 µM (inactive) |  | > 100 µM (inactive) | > 100 µM (inactive) | > 100 µM (inactive) | > 100 µM (inactive) | > 100 µM (inactive) | > 100 µM (inactive) |
| Nc1nc2c(c(=O)[n-]1)[n+](CCO)cn2C1OC(CO)C(O)C1O (stereo unspecified) | > 100 µM (inactive) | > 100 µM (inactive) | > 100 µM (inactive) | > 100 µM (inactive) | > 100 | > 100 µM (inactive) | > 100 µM (inactive) | > 100 µM (inactive) |  | > 100 µM (inactive) | > 100 µM (inactive) |  | > 100 µM (inactive) | > 100 µM (inactive) | > 100 µM (inactive) | > 100 µM (inactive) |
| C=C(C(=C)P(=S)(C(C)C)C(C)C)P(=S)(C(C)C)C(C)C | > 100 µM (inactive) |  | > 100 µM (inactive) | > 100 µM (inactive) | > 100 | > 100 µM (inactive) | > 100 µM (inactive) | > 100 µM (inactive) | > 100 µM (inactive) | > 100 µM (inactive) | > 100 µM (inactive) | > 100 µM (inactive) | > 100 µM (inactive) | > 100 µM (inactive) | > 100 µM (inactive) | > 100 µM (inactive) |
| O=C(CC1(O)C(=O)Nc2c(Cl)ccc(Cl)c21)c1ccc(Cl)cc1 (stereo unspecified) | 18.6 µM (inactive) | 25.2 µM (inactive) | 53.7 µM (inactive) | 20.8 µM (inactive) | 31.4 | 21 µM (inactive) | 95.3 µM (inactive) | 29.4 µM (inactive) | 21.6 µM (inactive) |  | 55.5 µM (inactive) |  | 23.1 µM (inactive) | 24.8 µM (inactive) | 18.2 µM (inactive) | 37 µM (inactive) |
| O=C(O)c1c2c(cc3c(=O)c4ccccc4[nH]c13)CCCC2 | > 100 µM (inactive) | > 100 µM (inactive) | > 100 µM (inactive) | > 100 µM (inactive) | 62.7 | > 100 µM (inactive) | > 100 µM (inactive) | 82 µM (inactive) | > 100 µM (inactive) |  | 65.2 µM (inactive) | > 100 µM (inactive) | 76.7 µM (inactive) | > 100 µM (inactive) | > 100 µM (inactive) | > 100 µM (inactive) |
| CC(C)c1ccccc1NC(=O)CCc1n[nH]c(=S)o1 | 27.2 µM (inactive) |  | > 100 µM (inactive) | > 81.7 µM (inactive) | > 41.7 | > 48.9 µM (inactive) | > 100 µM (inactive) | > 63.5 µM (inactive) | > 100 µM (inactive) | > 100 µM (inactive) | > 37.4 µM (inactive) | > 100 µM (inactive) | > 100 µM (inactive) | 72.3 µM (inactive) | > 100 µM (inactive) | > 100 µM (inactive) |
| O=[N+]([O-])c1cccc(/C=N/C23CC4CC(CC(C4)C2)C3)c1 | > 100 µM (inactive) | > 100 µM (inactive) | > 100 µM (inactive) | > 100 µM (inactive) | > 100 | > 10 µM (inactive) | > 100 µM (inactive) | > 100 µM (inactive) | > 100 µM (inactive) | 70.8 µM (inactive) | 57.1 µM (inactive) | 74.1 µM (inactive) | > 100 µM (inactive) | > 100 µM (inactive) | > 100 µM (inactive) | > 100 µM (inactive) |
| Cc1nc2ccccc2[s+]c1-c1cnc(NC#N)nc1C(=O)Nc1cccc(Cl)c1 | > 100 µM (inactive) | > 100 µM (inactive) | > 100 µM (inactive) | > 100 µM (inactive) | > 100 | > 100 µM (inactive) | > 100 µM (inactive) | > 100 µM (inactive) | > 100 µM (inactive) | > 100 µM (inactive) | > 100 µM (inactive) | > 100 µM (inactive) | > 100 µM (inactive) | > 100 µM (inactive) | > 100 µM (inactive) | > 100 µM (inactive) |
| COC(=O)C1=C(O)c2cc(-c3ccccc3)c(-c3ccccc3)c(C#N)c2NC(=O)C1 | 6.08 µM (inactive) | 40.8 µM (inactive) | 34.5 µM (inactive) | 24 µM (inactive) | 1.55 |  | > 100 µM (inactive) | 1.92 µM (inactive) | > 100 µM (inactive) |  |  | 2.46 µM (inactive) | 3.97 µM (inactive) | 7.33 µM (inactive) | 47.9 µM (inactive) |  |
| Cc1cc(C)nc(NS(=O)(=O)c2ccc(Nc3c4ccccc4nc4c(C(=O)NCCN(C)C)cccc34)cc2)n1 | 1.86 µM (inactive) | 4.89 µM (inactive) | 5.97 µM (inactive) | 3.49 µM (inactive) | 5.66 |  | 10.5 µM (inactive) | 1.53 µM (inactive) | 4.26 µM (inactive) | 5.75 µM (inactive) | 0.764 µM (active) | 0.277 µM (active) | 3.55 µM (inactive) | 2.85 µM (inactive) | 2.79 µM (inactive) | 2.57 µM (inactive) |
| Cc1cc2c(C)n[nH]c2c(C(=O)O)c1C | > 100 µM (inactive) | > 100 µM (inactive) | > 100 µM (inactive) | > 100 µM (inactive) | > 100 | > 100 µM (inactive) | > 100 µM (inactive) | > 100 µM (inactive) | 85.7 µM (inactive) |  | > 100 µM (inactive) | > 100 µM (inactive) | > 100 µM (inactive) | > 100 µM (inactive) | > 100 µM (inactive) |  |
| N#CC(C(=O)C(=O)C(C#N)c1ccc(Br)cc1)c1ccc(Br)cc1 (stereo unspecified) | 16.5 µM (inactive) | 13.9 µM (inactive) | 14.6 µM (inactive) | 12.6 µM (inactive) | 13.3 | 4.65 µM (inactive) | 12 µM (inactive) | 14.1 µM (inactive) | 3.91 µM (inactive) | 14.4 µM (inactive) | 14.7 µM (inactive) | 4.4 µM (inactive) | 1.51 µM (inactive) | 15.5 µM (inactive) | 14.5 µM (inactive) | 10.5 µM (inactive) |
| CCCNCCCCC(NC(C)=O)C(=O)NCc1ccccc1 (stereo unspecified) | > 100 µM (inactive) | > 100 µM (inactive) | > 100 µM (inactive) | > 100 µM (inactive) | > 100 | > 100 µM (inactive) | > 100 µM (inactive) | > 100 µM (inactive) | > 100 µM (inactive) | > 100 µM (inactive) | > 100 µM (inactive) | > 100 µM (inactive) | > 100 µM (inactive) | > 100 µM (inactive) | > 100 µM (inactive) | > 100 µM (inactive) |
| C/C(CC(=O)Nc1ccccc1)=N\NC(N)=S | > 100 µM (inactive) | > 100 µM (inactive) | > 100 µM (inactive) |  |  | > 100 µM (inactive) | > 100 µM (inactive) | > 100 µM (inactive) | > 100 µM (inactive) | > 100 µM (inactive) | > 100 µM (inactive) | > 100 µM (inactive) | > 100 µM (inactive) | > 100 µM (inactive) |  | > 100 µM (inactive) |
| O=C(N/C(=C\c1ccc(/C=C(\NC(=O)c2ccccc2)c2nc3ccccc3[nH]2)cc1)c1nc2ccccc2[nH]1)c1ccccc1 | > 100 µM (inactive) | > 100 µM (inactive) | > 100 µM (inactive) | > 100 µM (inactive) | > 100 | > 100 µM (inactive) | > 100 µM (inactive) | > 100 µM (inactive) | > 100 µM (inactive) | > 100 µM (inactive) | > 100 µM (inactive) | > 100 µM (inactive) | > 100 µM (inactive) | > 100 µM (inactive) | > 100 µM (inactive) | > 100 µM (inactive) |
| CSC(C1c2ccccc2N(c2ccc(C)cc2)C2=NC(=O)N(C)C(=O)C21Cl)S(=O)(=O)c1ccc(C)cc1 (stereo unspecified) | 19.3 µM (inactive) | 18.8 µM (inactive) | 21 µM (inactive) | 31.4 µM (inactive) |  | 16 µM (inactive) | 35.4 µM (inactive) | 13 µM (inactive) | 22 µM (inactive) | 17.3 µM (inactive) | 30.6 µM (inactive) | 6.08 µM (inactive) | 21.6 µM (inactive) | 17.5 µM (inactive) | 21.7 µM (inactive) | 23.6 µM (inactive) |
| COC1CC(n2cc(F)c(N)nc2=O)OC1CO (stereo unspecified) | > 100 µM (inactive) | > 100 µM (inactive) | > 100 µM (inactive) | > 100 µM (inactive) | > 100 | > 100 µM (inactive) | > 100 µM (inactive) |  | > 100 µM (inactive) | > 100 µM (inactive) | > 100 µM (inactive) | > 100 µM (inactive) |  |  | > 100 µM (inactive) | > 100 µM (inactive) |
| COc1cc(CCc2ccncc2)cc(OC)c1OC | > 100 µM (inactive) |  | > 100 µM (inactive) | > 100 µM (inactive) | > 100 | > 100 µM (inactive) | > 100 µM (inactive) | > 100 µM (inactive) | > 100 µM (inactive) | > 100 µM (inactive) | > 100 µM (inactive) | > 100 µM (inactive) | > 100 µM (inactive) | > 100 µM (inactive) | > 100 µM (inactive) | > 100 µM (inactive) |
